Converted amounts (≈) assume the structure as drawn.
What was measured:
M. suipneumoniae LABER = assay: MIC against Mycoplasma, in vitro agar dilution; format: cell-based; conditions: Mesomycoplasma hyopneumoniae, 144 h; Friis broth solidified with 0.9% agarose, 10^3 to 10^5 C.F.U., 6 days at 37°C; read-out: MIC's against M. suipneumoniae LABER
[1] = system: Strep. suis (group D) SPS11; assay: MIC against Veterinary Bacteria, in vitro agar dilution; conditions: Streptococcus suis, 18 h, read-out: MIC's against Strep. suis (group D) SPS11
Method: (§1) The activity of the compounds of the Examples against various veterinarily important bacteria, was assayed in vitro using two-fold serial dilutions in Diagnostic Sensitivity Test Agar inoculated with 10^4 organisms.

[2] = system: Erysipelothrix rhusiopathiae NCTC 8163; assay: as above; conditions: Erysipelothrix rhusiopathiae, NCTC8163, 18 h, read-out: MIC's against Erysipelothrix rhusiopathiae NCTC 8163
Method: as §1

[3] = system: M. suipneumoniae J2206/183^b; assay: MIC against Mycoplasma, in vitro agar dilution; format: cell-based; conditions: Mesomycoplasma hyopneumoniae, 144 h; Friis broth solidified with 0.9% agarose, 10^3 to 10^5 C.F.U., 6 days at 37°C; read-out: MIC's against M. suipneumoniae J2206/183^b
M. suipneumoniae Str. 11 = assay: MIC against Mycoplasma, in vitro agar dilution; format: cell-based; conditions: Mesomycoplasma hyopneumoniae, STR.11, 144 h; Friis broth solidified with 0.9% agarose, 10^3 to 10^5 C.F.U., 6 days at 37°C; read-out: MIC's against M. suipneumoniae Str. 11
M. suipneumoniae JF 435 = assay: MIC against Mycoplasma, in vitro agar dilution; format: cell-based; conditions: Mesomycoplasma hyopneumoniae, JF435, 144 h; Friis broth solidified with 0.9% agarose, 10^3 to 10^5 C.F.U., 6 days at 37°C; read-out: MIC's against M. suipneumoniae JF 435
Strep. uberis SPU1 = assay: MIC against Veterinary Bacteria, in vitro agar dilution; conditions: Streptococcus uberis, SPU1, 18 h, read-out: MIC's against Strep. uberis SPU1
Method: as §1

M. gallisepticum S6 = assay: MIC against Mycoplasma, in vitro agar dilution; format: cell-based; conditions: Mycoplasmoides gallisepticum, S6, 144 h; Friis broth solidified with 0.9% agarose, 10^3 to 10^5 C.F.U., 6 days at 37°C; read-out: MIC's against M. gallisepticum S6
M. suipneumoniae NB12 = assay: MIC against Mycoplasma, in vitro agar dilution; format: cell-based; conditions: Mesomycoplasma hyopneumoniae, NB12, 144 h; Friis broth solidified with 0.9% agarose, 10^3 to 10^5 C.F.U., 6 days at 37°C; read-out: MIC's against M. suipneumoniae NB12
E. coli NCTC 10418 = assay: MIC against Veterinary Bacteria, in vitro agar dilution; conditions: Escherichia coli, NCTC10418, 18 h, read-out: MIC's against E. coli NCTC 10418
Method: as §1

Bord. bronchiseptica B08 = assay: as above; conditions: Bordetella bronchiseptica, B08, 18 h, read-out: MIC's against Bord. bronchiseptica B08
Method: as §1

M. bovis NCTC 10131 = assay: microbe, parasite or virus in culture; format: cell-based; conditions: NCTC10131, 144 h, read-out: MIC's against M. bovis NCTC 10131
Past. multocida PA2 = assay: MIC against Veterinary Bacteria, in vitro agar dilution; conditions: Pasteurella multocida, PA2, 18 h, read-out: MIC's against Past. multocida PA2
Method: as §1

M. hyorhinis ATCC 25021 = assay: MIC against Mycoplasma, in vitro agar dilution; format: cell-based; conditions: Mesomycoplasma hyorhinis, ATCC25021, 144 h; Friis broth solidified with 0.9% agarose, 10^3 to 10^5 C.F.U., 6 days at 37°C; read-out: MIC's against M. hyorhinis ATCC 25021
Strep. agalactiae SPA1 = assay: MIC against Veterinary Bacteria, in vitro agar dilution; conditions: Streptococcus agalactiae, SPA1, 18 h, read-out: MIC's against Strep. agalactiae SPA1
Method: as §1

S. typhimurium S18 = assay: as above; conditions: Salmonella enterica, TYPHIMURIUM, 18 h, read-out: MIC's against S. typhimurium S18
Method: as §1

M. suipneumoniae HK(2) = assay: MIC against Mycoplasma, in vitro agar dilution; format: cell-based; conditions: Mesomycoplasma hyopneumoniae, 144 h; Friis broth solidified with 0.9% agarose, 10^3 to 10^5 C.F.U., 6 days at 37°C; read-out: MIC's against M. suipneumoniae HK(2)
S. dublin S7 = assay: MIC against Veterinary Bacteria, in vitro agar dilution; conditions: Salmonella enterica, S7, 18 h, read-out: MIC's against S. dublin S7
Method: as §1

[4] = system: Staph. aureus 152 (pen. sens); assay: as above; conditions: Staphylococcus aureus, 18 h, read-out: MIC's against Staph. aureus 152 (pen. sens)
Method: as §1

[5] = system: Staph. aureus B4 (pen. resistant); assay: as above; conditions: Staphylococcus aureus, 18 h, read-out: MIC's against Staph. aureus B4 (pen. resistant)
Method: as §1

M. hyorhinis ATCC 23234 = assay: MIC against Mycoplasma, in vitro agar dilution; format: cell-based; conditions: Mesomycoplasma hyorhinis, ATCC23234, 144 h; Friis broth solidified with 0.9% agarose, 10^3 to 10^5 C.F.U., 6 days at 37°C; read-out: MIC's against M. hyorhinis ATCC 23234
Staph. aureus Oxford = assay: MIC against Veterinary Bacteria, in vitro agar dilution; conditions: Staphylococcus aureus, 18 h, read-out: MIC's against Staph. aureus Oxford
Method: as §1

M. suipneumoniae UCD 1 = assay: MIC against Mycoplasma, in vitro agar dilution; format: cell-based; conditions: Mesomycoplasma hyopneumoniae, UCD1, 144 h; Friis broth solidified with 0.9% agarose, 10^3 to 10^5 C.F.U., 6 days at 37°C; read-out: MIC's against M. suipneumoniae UCD 1
M. pneumoniae ATCC 15492 = assay: MIC against Mycoplasma, in vitro agar dilution; format: cell-based; conditions: Mycoplasmoides pneumoniae, ATCC15492, 144 h; Friis broth solidified with 0.9% agarose, 10^3 to 10^5 C.F.U., 6 days at 37°C; read-out: MIC's against M. pneumoniae ATCC 15492

SMILES	MIC (M. suipneumoniae LABER) [µg/mL]	MIC [1] [µg/mL]	MIC [2] [µg/mL]	MIC [3] [µg/mL]	MIC (M. suipneumoniae Str. 11) [µg/mL]	MIC (M. suipneumoniae JF 435) [µg/mL]	MIC (Strep. uberis SPU1) [µg/mL]	MIC (M. gallisepticum S6) [µg/mL]	MIC (M. suipneumoniae NB12) [µg/mL]	MIC (E. coli NCTC 10418) [µg/mL]	MIC (Bord. bronchiseptica B08) [µg/mL]	MIC (M. bovis NCTC 10131) [µg/mL]	MIC (Past. multocida PA2) [µg/mL]	MIC (M. hyorhinis ATCC 25021) [µg/mL]	MIC (Strep. agalactiae SPA1) [µg/mL]	MIC (S. typhimurium S18) [µg/mL]	MIC (M. suipneumoniae HK(2)) [µg/mL]	MIC (S. dublin S7) [µg/mL]	MIC [4] [µg/mL]	MIC [5] [µg/mL]	other results
COC(=O)C(C)=C(C)CC1OCC(CC2OC2C(C)C(C)O)C(O)C1O [Example 2, Methyl 4-[5S-(2S,3S-epoxy-5S-hydroxy-4S-methylhexyl)-3R,4R-dihydroxytetrahydropyran-2S-yl]-2,3-dimethylbut-2(E)-enoate]	5 (≈ 13.4 µM)	> 80	> 80	5 (≈ 13.4 µM)	5 (≈ 13.4 µM)	10 (≈ 26.8 µM)	20 (≈ 53.7 µM)	> 10	5 (≈ 13.4 µM)	> 80	> 80	0.25 (≈ 0.671 µM)	5 (≈ 13.4 µM)	5 (≈ 13.4 µM)	80 (≈ 215 µM)	> 80	10 (≈ 26.8 µM)	> 80	5 (≈ 13.4 µM)	5 (≈ 13.4 µM)	MIC (M. hyorhinis ATCC 23234): 5 µg/mL (≈ 13.4 µM); MIC (Staph. aureus Oxford): 5 µg/mL (≈ 13.4 µM); MIC (M. suipneumoniae UCD 1): 10 µg/mL (≈ 26.8 µM)
CCOC(=O)C(C)=C(C)CC1OCC(CC2OC2C(C)C(C)O)C(O)C1O [Example 1, Ethyl 4-[5S-(2S,3S-epoxy-5S-hydroxy-4S-methylhexyl)-3R,4R-dihydroxytetrahydropyran-2S-yl]-2,3-dimethylbut-2(E)-enoate]	1 (≈ 2.59 µM)	> 80	80 (≈ 207 µM)	2.5 (≈ 6.47 µM)	1 (≈ 2.59 µM)	1 (≈ 2.59 µM)	1.25 (≈ 3.23 µM)	> 10	1 (≈ 2.59 µM)	> 80	> 80	0.05 (≈ 0.129 µM)	1.25 (≈ 3.23 µM)	0.5 (≈ 1.29 µM)	5 (≈ 12.9 µM)	> 80	1 (≈ 2.59 µM)	> 80	0.625 (≈ 1.62 µM)	0.625 (≈ 1.62 µM)	MIC (M. pneumoniae ATCC 15492): 10 µg/mL (≈ 25.9 µM); MIC (M. hyorhinis ATCC 23234): 0.5 µg/mL (≈ 1.29 µM); MIC (Staph. aureus Oxford): 0.625 µg/mL (≈ 1.62 µM); MIC (M. suipneumoniae UCD 1): 2.5 µg/mL (≈ 6.47 µM)
CC(CC1OCC(CC2OC2C(C)C(C)O)C(O)C1O)=C(C)C(=O)OCc1cccc([N+](=O)[O-])c1 [Example 3, m-Nitrobenzyl 4-[5S-(2S,3S-epoxy-5S-hydroxy-4S-methylhexyl)-3R,4R-dihydroxytetrahydropyran-2S-yl]-2,3-di-methylbut-2(E)-enoate]	0.05 (≈ 0.101 µM)	10 (≈ 20.3 µM)	40 (≈ 81 µM)	0.1 (≈ 0.203 µM)	0.05 (≈ 0.101 µM)	0.1 (≈ 0.203 µM)	0.156 (≈ 0.316 µM)	5 (≈ 10.1 µM)	0.05 (≈ 0.101 µM)	> 80	80 (≈ 162 µM)	0.025 (≈ 0.0507 µM)	1.25 (≈ 2.53 µM)	0.025 (≈ 0.0507 µM)	1.25 (≈ 2.53 µM)	> 80	0.1 (≈ 0.203 µM)	> 80	1.25 (≈ 2.53 µM)	1.25 (≈ 2.53 µM)	MIC (M. pneumoniae ATCC 15492): 2.5 µg/mL (≈ 5.07 µM); MIC (M. hyorhinis ATCC 23234): 0.025 µg/mL (≈ 0.0507 µM); MIC (Staph. aureus Oxford): 1.25 µg/mL (≈ 2.53 µM); MIC (M. suipneumoniae UCD 1): 0.05 µg/mL (≈ 0.101 µM)
CC(CC1OCC(CC2OC2C(C)C(C)O)C(O)C1O)=C(C)C(=O)O [Example 4, Sodium 4-[5S-(2S, 35-epoxy-5S-hydroxy-4S-methylhexyl)-3R,4R-dihydroxytetrahydropyran-2S-yl]-2,3-dimethylbut-2(E)-enoate]	0.1	20	80	0.25	0.1	0.25	0.156	5	0.25	> 80	> 80	0.025	2.5	0.1	1.25	> 80	0.25	> 80	1.25	1.25	MIC (M. pneumoniae ATCC 15492): 5 µg/mL; MIC (M. hyorhinis ATCC 23234): 0.1 µg/mL; MIC (Staph. aureus Oxford): 1.25 µg/mL; MIC (M. suipneumoniae UCD 1): 0.25 µg/mL
